Laboratory results from patent US7538222B2, “N-substituted piperidine derivatives as serotonin receptor agents” (ACADIA Pharmaceuticals, Inc., priority 2002, dated 2009).

Tested on: Male NSA mice
Experiment: In vivo determination of behavioral effects (motor activity / MK-801 hyperactivity), minimum effective dose
Details: p.o., lowest dose significantly different from vehicle control (distance traveled)
Procedure: Animals and Apparatus. Male NSA mice (Harlan; San Deigo, Calif.) were used as subjects. Mice weighed 20-30 g. Animals were housed 8/cage in the One Cage system (One Cage; Lab Products, Inc., Seaford, Del.) with bedding (⅛ inch Bed “O” Cob; Harlan Teklad, Madison, Wis.) in a room with controlled temperature 22±3° C. and a 12 hour light:dark cycle (lights on 6 am). Water and standard rodent chow (Harlan Teklad) were continuously available in the home cage. For testing, plastic locomotor activity cages (20×20×30 cm; AccuScan Instruments, Columbus, Ohio) were equipped with photocell beams for monitoring horizontal activity. Data were collected using Versamax computer software (AccuScan Instruments).
For determination of spontaneous activity, test compounds were administered alone (s.c. 10 min or p.o. 30 min before the session). For hyperactivity experiments, mice were injected with 0.3 mg/kg MK-801 i.p. 15 min presession (the peak dose for producing hyperactivity in an inverted-U dose-effect curve as determined in pilot experiments) in combination with vehicle or test compound. Motor activity data were collected during a 15 min session in a lit room. Mice had no prior exposure to the motor cages. Each dose or dose combination was tested in a separate group of mice (n=8).
Distance traveled (cm) was calculated and averaged across animals in a group. […]

## CC(C)COc1ccc(CC(=O)N(Cc2ccc(F)cc2)C2CCN(CCCN3C(=O)OC[C@@H]3C(C)C)CC2)cc1.O=C(O)C(=O)O [117NLS01, N-(4-Fluorobenzyl)-2-(4-isobutoxyphenyl)-N-{1-[3-(4-(S)-isopropyl-2-oxo-oxazolidin-3-yl)propyl]piperidin-4-yl}acetamide]
  MED in vivo po: 1 mg/kg
